Assay results reported in paper PMC6629894, “Ruthenium Complexes Containing Heterocyclic Thioamidates Trigger Caspase-Mediated Apoptosis Through MAPK Signaling in Human Hepatocellular Carcinoma Cells” (Frontiers in Oncology, 2019).

Legend:
B16-F10 (mouse melanoma) = experiment: Alamar blue cytotoxicity assay, 72 h; assay type: cell-based; details: for IC50: read-out: IC50 and 95% CI, B16-F10, 72 h
Description: (§1) The cell lines HepG2 (human hepatocellular carcinoma), HL-60 (human promyelocytic leukemia), K-562 (human chronic myelogenous leukemia), B16-F10 (mouse melanoma), MCF-7 (human breast carcinoma), HCT116 (human colon carcinoma), HSC-3 (human oral squamous cell carcinoma), SCC-4 (human oral squamous cell carcinoma), MRC-5 (human lung fibroblast), WT SV40 MEF (wild-type immortalized mouse embryonic fibroblast), and BAD KO SV40 MEF (BAD gene knockout immortalized mouse embryonic fibroblasts) were obtained from the American Type Culture Collection (ATCC, Manassas, VA, USA). Cells were cultured in RPMI 1640 medium (Gibco-BRL, Gaithersburg, MD, USA) with 10% fetal bovine serum (Life, Carlsbad, CA, USA), 2 mM L-glutamine (Vetec Química Fina, Duque de Caxias, RJ, Brazil) and 50 μg/mL gentamycin (Life). For all experiments, adherent cells were collected by treatment with 0.25% trypsin-EDTA solution (Gibco-BRL). All cell lines were cultured in flasks at 37°C in 5% CO2 and were subcultured every 3–4 days to maintain exponential growth. All cell lines were tested for mycoplasma using a mycoplasma staining kit (Sigma-Aldrich Co.) to validate that the cells that were used were free from contamination.
(§2) Cytotoxicity was measured colorimetrically using an Alamar blue method that was performed as previously described ([20], [21]). Cells were seeded in 96-well plates for all experiments (7 × 10^4 cells/mL for adherent cells or 3 × 10^5 cells/mL for suspension cells in 100 μL of medium) and incubated overnight at 37°C with 5% CO2 to allow for adherence. The complexes were dissolved in 0.5% dimethyl sulfoxide (DMSO, Vetec Química Fina) at eight different concentrations from 0.19 to 25 μg/mL and were added to each well and incubated for 72 h. The negative control was treated with the vehicle (0.5% DMSO) that was used to solubilize and dilute the complexes. […] Four (for cell lines) or 24 h (for PBMCs) before the end of incubation, 20 μL of a stock solution (0.312 mg/mL) of resazurin (Sigma-Aldrich Co.) was added to each well. Absorbance was measured at 570 and 600 nm using a SpectraMax 190 Microplate Reader (Molecular Devices, Sunnyvale, CA, USA).

[1] = system: HCT116 (human colon carcinoma); experiment: Alamar blue cytotoxicity assay, 72 h; assay type: cell-based; details: PBMCs vs HCT116
Description: as §1, §2

[2] = system: HL-60 (human promyelocytic leukemia); experiment: Alamar blue cytotoxicity assay, 72 h; assay type: cell-based
Description: as §1, §2

[3] = system: HSC-3 (human oral squamous cell carcinoma); experiment: Alamar blue cytotoxicity assay, 72 h; assay type: cell-based; details: PBMCs vs HSC-3
Description: as §1, §2

[4] = system: MCF-7 (human breast carcinoma); experiment: Alamar blue cytotoxicity assay, 72 h; assay type: cell-based
Description: as §1, §2

[5] = system: SCC-4 (human oral squamous cell carcinoma); experiment: Alamar blue cytotoxicity assay, 72 h; assay type: cell-based
Description: as §1, §2

human topoisomerase IB = system: human topoisomerase IB; design: method as in PMID 26795676; details: ref [18], [19]; cited from earlier work
[6] = system: WT SV40 MEF (wild-type immortalized mouse embryonic fibroblast); experiment: Alamar blue cytotoxicity assay, 72 h; assay type: cell-based; details: read-out: IC50 and 95% CI
[7] = system: BAD KO SV40 MEF (BAD gene knockout immortalized mouse embryonic fibroblasts); experiment: Alamar blue cytotoxicity assay, 72 h; assay type: cell-based; details: read-out: IC50 and 95% CI
advanced HCC = system: advanced HCC; design: method as in PMID 18650514, PMID 28604110, PMID 29533189; details: ref [2]–[4]; cited from earlier work

With `F[P-](F)(F)(F)(F)F.Nc1cc(N)nc([S-])n1.[Ru+2].c1ccc(-c2ccccn2)nc1.c1ccc(P(CCCCP(c2ccccc2)c2ccccc2)c2ccccc2)cc1` [Complex 3, [Ru(dmp)(bipy)(dppb)]PF6] the IC50 (B16-F10 (mouse melanoma)) was 3.9 µM, the “Selectivity index (SI = IC50 [noncancerous cells]/IC50 [cancer cells])” value (“Selectivity index” below) [1] was 2.2 and the “Selectivity index” value ([2]; MRC-5 vs HL-60) was 1.1. The “Selectivity index” value ([2]; PBMCs vs HL-60) was 2.6, the “Selectivity index” value [3] was 2.5 and the “Selectivity index” value ([4]; PBMCs vs MCF-7) was 1.5. For the same compound, the IC50 ([4]; read-out: IC50 and 95% CI, MCF-7, 72 h) was 8.7 µM, the “Selectivity index” value ([5]; MRC-5 vs SCC-4) was 1.1 and the “supercoiled DNA relaxation mediated by human topoisomerase IB” value (human topoisomerase IB) was “inhibit the supercoiled DNA relaxation”.
In the case of `F[P-](F)(F)(F)(F)F.O=C(O)c1ccc([S-])nc1.[Ru+2].c1ccc(-c2ccccn2)nc1.c1ccc(P(CCCCP(c2ccccc2)c2ccccc2)c2ccccc2)cc1` [Complex 4, [Ru(mpca)(bipy)(dppb)]PF6], the “Selectivity index” value (B16-F10 (mouse melanoma); PBMCs vs B16-F10) is reported as 1.3, the IC50 (B16-F10 (mouse melanoma)) is reported as 17.7 µM and the “Selectivity index” value ([2]; PBMCs vs HL-60) is reported as 2.6. For the same compound, the IC50 ([2]; read-out: IC50 and 95% CI, HL-60, 72 h) was 8.7 µM and the “supercoiled DNA relaxation mediated by human topoisomerase IB” value (human topoisomerase IB) was “inhibit the supercoiled DNA relaxation”.
Work on `N.N.[Cl][Pt][Cl]` [cisplatin, reference compound] yielded an IC50 [6] of 36.9 µM and an IC50 [7] of 47.3 µM.
`O=C1[O][Pt]2([NH][C@@H]3CCCC[C@H]3[NH]2)[O]C1=O` [oxaliplatin, reference compound] showed an IC50 ([5]; read-out: IC50 and 95% CI, SCC-4, 72 h) of 7.7 µM.
For `CNC(=O)c1cc(Oc2ccc(NC(=O)Nc3ccc(Cl)c(C(F)(F)F)c3)cc2)ccn1` [sorafenib], the prolongation of survival (advanced HCC) is given as 3 months.
